Data: patent US10941157B2, “Pesticidal compositions and uses thereof” (Gilead Apollo, LLC, priority 2015, dated 2021)
In brackets after ≈: the same amount, converted by molar mass.

Key:
Format in all cases: cell-based
[1] = system: Rhizoctonia solani (Rs); assay: In vitro pathogen growth inhibition assay, Rs (mycelial plugs); conditions: Rhizoctonia solani, 48 h, ≥90% inhibition; mycelial plugs; 48 hours vs 2% DMSO control; read-out: Compound Concentration (ppm) sufficient for ≥90% inhibition of growth, Rs
Method in brief: (§1)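 Value reported is the compound concentration reaching ≥90% growth inhibition, from OD readings at 24 and 48 h after blank subtraction, confirmed visually. Inoculum was spores diluted in 17% V8 medium, except Rs, using 1.5 mm mycelial plugs in ¼ PDB; actual compound concentration corrected via OD600.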

[2] = system: Fusarium virguliforme (Fv); assay: In vitro pathogen growth inhibition assay, Fv; conditions: ≥90% inhibition, 48 hours vs 2% DMSO control, read-out: Compound Concentration (ppm) sufficient for ≥90% inhibition of growth, Fv
Method in brief: as §1

[3] = system: Saccharomyces cerevisiae (Sc); assay: Yeast growth inhibition assay; conditions: Saccharomyces cerevisiae, ≥75% inhibition, read-out: Compound Concentration (ppm) sufficient for ≥75% inhibition, Sc
Method: Both tables list the concentration of each compound that was sufficient to ≥90% inhibition of growth for each of the fungal pathogens listed above. In addition, some of compounds were tested in a yeast growth inhibition assay for Saccharomyces cerevisiae (Sc). Table 2 lists the concentration of the tested compound that was sufficient to ≥75% inhibition of Saccharomyces cerevisiae (Sc).

[4] = system: Diplodia maydis (Dm); assay: In vitro pathogen growth inhibition assay, Dm; conditions: Stenocarpella maydis, 48 h, ≥90% inhibition; 48 hours vs 2% DMSO control; read-out: Compound Concentration (ppm) sufficient for ≥90% inhibition of growth, Dm
Method in brief: as §1

[5] = system: Septoria tritici (St); assay: In vitro pathogen growth inhibition assay, St; conditions: Zymoseptoria tritici, 48 h, ≥90% inhibition; 48 hours vs 2% DMSO control; read-out: Compound Concentration (ppm) sufficient for ≥90% inhibition of growth, St
Method in brief: (§2)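 Spores in 17% V8 liquid medium, or 1.5 mm Rs mycelial plugs in ¼ PDB, incubated with compound; final concentration checked by OD600 for precipitation. OD readings at 24 and 48 h, blank-subtracted, plus visual ratings; value is concentration giving ≥90% growth inhibition.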

[6] = system: Phytophthora capsici (Pc); assay: In vitro pathogen growth inhibition assay, Pc; conditions: 48 h, ≥90% inhibition, 48 hours vs 2% DMSO control, read-out: Compound Concentration (ppm) sufficient for ≥90% inhibition of growth, Pc
Method in brief: as §1

[7] = system: Fusarium moniliforme (Fm); assay: In vitro pathogen growth inhibition assay, Fm; conditions: Fusarium verticillioides; ≥90% inhibition; 48 hours vs 2% DMSO control; read-out: Compound Concentration (ppm) sufficient for ≥90% inhibition of growth, Fm
Method in brief: as §2

[8] = system: Collectotrichum graminicola (Cg); assay: In vitro pathogen growth inhibition assay, Cg; conditions: 48 h, ≥90% inhibition; 48 hours vs 2% DMSO control; read-out: Compound Concentration (ppm) sufficient for ≥90% inhibition of growth, Cg
Method in brief: as §2

[9] = system: Botrtyis cinerea (Bc); assay: In vitro pathogen growth inhibition assay, Bc; conditions: 48 h, ≥90% inhibition; 48 hours vs 2% DMSO control; read-out: Compound Concentration (ppm) sufficient for ≥90% inhibition of growth, Bc
Method in brief: as §2

SMILES | IC90 [1] [µg/mL] | IC90 [2] [µg/mL] | IC75 [3] [µg/mL] | IC90 [4] [µg/mL] | IC90 [5] [µg/mL] | IC90 [6] [µg/mL] | IC90 [7] [µg/mL] | IC90 [8] [µg/mL] | IC90 [9] [µg/mL]
COc1ccccc1[C@H](Cn1c(=O)n(C(C)(C)C(=O)NC(C)C)c(=O)c2c(C)c(-c3ncco3)sc21)OC1CCC(=O)CC1 [Compound I-013] | 10 (≈ 16.1 µM) | 2 (≈ 3.21 µM) | 0.14 (≈ 0.225 µM) | 0.4 (≈ 0.642 µM) | ≥ 10 | > 50 | 0.08 (≈ 0.128 µM) | 10 (≈ 16.1 µM) | 0.4 (≈ 0.642 µM)
COc1ccccc1[C@H](Cn1c(=O)n(C(C)(C)C(=O)NC2CCC2)c(=O)c2c(C)c(-c3ncco3)sc21)OC(C)C [Compound I-098] | 10 (≈ 17.2 µM) | 10 (≈ 17.2 µM) | 11 (≈ 18.9 µM) | 2 (≈ 3.44 µM) | > 50 | > 50 | 0.4 (≈ 0.689 µM) | 10 (≈ 17.2 µM) | 2 (≈ 3.44 µM)
COc1ccccc1[C@H](Cn1c(=O)n(C(C)(C)C(=O)NC2CCC2)c(=O)c2c(C)c(-c3ncco3)sc21)OC1CCOCC1 [Compound I-099] | 50 (≈ 80.3 µM) | 50 (≈ 80.3 µM) | 33 (≈ 53 µM) | 10 (≈ 16.1 µM) | > 50 | > 50 | 0.4 (≈ 0.642 µM) | 50 (≈ 80.3 µM) | 10 (≈ 16.1 µM)
COc1ccccc1[C@H](Cn1c(=O)n(C(C)(C)C(N)=O)c(=O)c2c(C)c(-c3ncco3)sc21)O[C@H]1CC[C@@H](O)CC1 [Compound I-100] | 50 (≈ 85.8 µM) | 10 (≈ 17.2 µM) | 1.2 (≈ 2.06 µM) | 2 (≈ 3.43 µM) | ≥ 50 | > 50 | 0.4 (≈ 0.686 µM) | 50 (≈ 85.8 µM) | 2 (≈ 3.43 µM)
COc1ccc(F)cc1[C@H](Cn1c(=O)n(C(C)(C)C(N)=O)c(=O)c2c(C)c(-c3ncco3)sc21)OC1CCOCC1 [Compound I-101] | 50 (≈ 85.2 µM) | 10 (≈ 17 µM) | 3.7 (≈ 6.31 µM) | 10 (≈ 17 µM) | > 50 | 50 (≈ 85.2 µM) | 0.4 (≈ 0.682 µM) | 10 (≈ 17 µM) | 10 (≈ 17 µM)
COc1ccc(F)cc1[C@H](Cn1c(=O)n(C(C)(C)C(N)=O)c(=O)c2c(C)c(-n3nccn3)sc21)OC1CCOCC1 [Compound I-102] | ≥ 2 | 2 (≈ 3.41 µM) | 1.2 (≈ 2.05 µM) | 2 (≈ 3.41 µM) | ≥ 50 | 10 (≈ 17 µM) | 0.4 (≈ 0.682 µM) | 2 (≈ 3.41 µM) | 2 (≈ 3.41 µM)
COc1ccc(F)cc1[C@H](Cn1c(=O)n(C(C)(C)C(N)=O)c(=O)c2c(C)c(-c3ncco3)sc21)O[C@H]1CC[C@@H](O)CC1 [Compound I-103] | 50 (≈ 83.2 µM) | 2 (≈ 3.33 µM) | 1.2 (≈ 2 µM) | 10 (≈ 16.6 µM) | > 10 | > 50 | 0.4 (≈ 0.666 µM) | 50 (≈ 83.2 µM) | 2 (≈ 3.33 µM)
COc1ccc(F)cc1[C@H](Cn1c(=O)n(C(C)(C)C(N)=O)c(=O)c2c(C)c(-c3ncco3)sc21)OCC1CCC(O)CC1 (stereo partly drawn) [Compound I-104] | 10 (≈ 16.3 µM) | 10 (≈ 16.3 µM) | 11 (≈ 17.9 µM) | 10 (≈ 16.3 µM) | > 50 | > 10 | 0.4 (≈ 0.651 µM) | > 50 | 2 (≈ 3.25 µM)
CCNC(=O)C(C)(C)n1c(=O)c2c(C)c(-c3ncco3)sc2n(C[C@H](OC2CCC(=O)CC2)c2ccccc2OC)c1=O [Compound I-105] | > 50 | 10 (≈ 16.4 µM) | 1.2 (≈ 1.97 µM) | 10 (≈ 16.4 µM) | > 50 | > 50 | 0.4 (≈ 0.657 µM) | 50 (≈ 82.1 µM) | 2 (≈ 3.29 µM)
COc1ccccc1[C@H](Cn1c(=O)n(C(C)(C)C(=O)N2CCCCC2)c(=O)c2c(C)c(-c3ncco3)sc21)OC1CCC(=O)CC1 [Compound I-106] | 50 (≈ 77.1 µM) | 2 (≈ 3.08 µM) | 33.3 (≈ 51.3 µM) | 2 (≈ 3.08 µM) | > 50 | > 50 | 0.4 (≈ 0.617 µM) | 10 (≈ 15.4 µM) | 2 (≈ 3.08 µM)
COc1ccccc1[C@H](Cn1c(=O)n(C(C)(C)C(=O)OCc2ccccc2)c(=O)c2c(C)c(-c3ncco3)sc21)OC1CCC(=O)CC1 [Compound I-107] | > 50 | > 50 | > 33.3 | ≥ 0.4 | > 50 | > 50 | 0.4 (≈ 0.595 µM) | > 50 | 0.4 (≈ 0.595 µM)
CCNC(=O)C(C)(C)n1c(=O)c2c(C)c(C(=O)OCC)sc2n(C[C@H](OC(C)C)c2ccccc2OC)c1=O [Compound I-108] | 50 (≈ 89.3 µM) | 2 (≈ 3.57 µM) | 11.1 (≈ 19.8 µM) | 10 (≈ 17.9 µM) | > 50 | > 50 | 0.4 (≈ 0.715 µM) | 10 (≈ 17.9 µM) | 2 (≈ 3.57 µM)
CCOC(=O)c1sc2c(c1C)c(=O)n(C(C)(C)C(=O)N1CCOCC1)c(=O)n2C[C@H](OC(C)C)c1ccccc1OC [Compound I-109] | 50 (≈ 83.1 µM) | 10 (≈ 16.6 µM) | 11.1 (≈ 18.4 µM) | 2 (≈ 3.32 µM) | > 50 | > 50 | 0.4 (≈ 0.665 µM) | 10 (≈ 16.6 µM) | 0.4 (≈ 0.665 µM)
COc1ccccc1[C@H](Cn1c(=O)n(C(C)(C)C(=O)N2CCCCC2)c(=O)c2c(C)c(-c3ncco3)sc21)O[C@H]1CC[C@@H](O)CC1 [Compound I-110] | 50 (≈ 76.8 µM) | 2 (≈ 3.07 µM) | 33.3 (≈ 51.2 µM) | 10 (≈ 15.4 µM) | > 50 | > 50 | 0.4 (≈ 0.615 µM) | > 50 | 2 (≈ 3.07 µM)
COc1ccccc1[C@H](Cn1c(=O)n(C(C)(C)C(=O)N2CCCC2)c(=O)c2c(C)c(-c3ncco3)sc21)O[C@H]1CC[C@@H](O)CC1 [Compound I-111] | 10 (≈ 15.7 µM) | 2 (≈ 3.14 µM) | 3.7 (≈ 5.81 µM) | 10 (≈ 15.7 µM) | 50 (≈ 78.5 µM) | > 50 | 0.4 (≈ 0.628 µM) | 10 (≈ 15.7 µM) | 2 (≈ 3.14 µM)
